Patent US20130079408A1, “PERACID AND 2-HYDROXY ORGANIC ACID COMPOSITIONS AND METHODS FOR TREATING ITEMS” (Fresh Express Incorporated, priority 2009, published 2013)

Legend:
[1] = test system: Lactobacillus plantarum 14917; experiment: Suspended cells challenge test at 20 s residence time, no surfactant (Example 2); assay type: cell-based; settings: Peroxyacetic acid 0 ppm
[2] = test system: Listeria innocua; experiment: Attached cells challenge test on produce leaves (Example 1); assay type: cell-based; settings: PAA 0 ppm, 45 F, 45 s
[3] = test system: E. coli K12; experiment: as above; assay type: cell-based; settings: PAA 0 ppm, 45 F, 45 s
[4] = test system: Pseudomonas aeruginosa (ATCC 9027); experiment: Non-food surface coupon test (Example 6); assay type: cell-based; settings: 90 sec residence time
[5] = test system: Listeria innocua ATCC 33090; experiment: Suspended cells challenge test at 20 s residence time, no surfactant (Example 2); assay type: cell-based; settings: Peroxyacetic acid 0 ppm
[6] = 40 C; cited from earlier work
[7] = test system: indigenous microorganisms (Aerobic Plate Counts); assay type: cell-based

SMILES: CC(O)C(=O)O (centres unmarked) [Lactic acid, lactic acid]
- log reduction of suspended Lactobacillus plantarum cells ([1]; Lactic Acid 2000 ppm): 0.00
- log reduction of suspended Lactobacillus plantarum cells ([1]; Lactic Acid 2500 ppm): 0.02
- log reduction of suspended Lactobacillus plantarum cells ([1]; Lactic Acid 3000 ppm): 0.01
- Attached Listeria, Romaine ([2]; LA 0.6%): 1.1
- Attached Listeria, Spinach ([2]; LA 0.6%): 0.1
- Attached Listeria, Romaine ([2]; LA 0.9%): 1.4
- Attached Listeria, Spinach ([2]; LA 0.9%): 0.2
- Attached Listeria, Romaine ([2]; LA 1.2%): 1.5
- Attached Listeria, Spinach ([2]; LA 1.2%): 0.2
- Attached E. Coli, Romaine ([3]; LA 0.6%): 0.24
- Attached E. Coli, Spinach ([3]; LA 0.6%): 0.09
- Attached E. Coli, Romaine ([3]; LA 0.9%): 0.37
- Attached E. Coli, Spinach ([3]; LA 0.9%): 0.42
- Attached E. Coli, Romaine ([3]; LA 1.2%): 1.28
- Attached E. Coli, Spinach ([3]; LA 1.2%): 0.81
- Log reductions, attached on glass coupons ([4]; PA 0 ppm, LA 1,250 ppm): 0.4
- Log reductions, attached on stainless steel coupons ([4]; PA 0 ppm, LA 1,250 ppm): 1.6
- Log reductions, attached on glass coupons ([4]; PA 0 ppm, LA 2,500 ppm): 1.7
- Log reductions, attached on plastic coupons ([4]; PA 0 ppm, LA 2,500 ppm): 0.6
- Log reductions, attached on stainless steel coupons ([4]; PA 0 ppm, LA 2,500 ppm): 1.9
- Log reductions, attached on wood coupons ([4]; PA 0 ppm, LA 2,500 ppm): 1.4
- Log reductions, attached on plastic coupons ([4]; PA 0 ppm, LA 5,000 ppm): 1.2
- Log reductions, attached on wood coupons ([4]; PA 0 ppm, LA 7,500 ppm): 3.6
- log reduction of suspended Listeria innocua cells ([5]; Lactic Acid 2000 ppm): 0.08
- log reduction of suspended Listeria innocua cells ([5]; Lactic Acid 2500 ppm): 0.19
- log reduction of suspended Listeria innocua cells ([5]; Lactic Acid 3000 ppm): 0.05

SMILES: CC(=O)OO [Peroxyacetic acid, peroxyacetic acid]
- apparent equilibrium constant Kap [6]: about 2.21
- Aerobic Plate Counts Log Reduction [7]: 0.7 Log cfu/g
- Aerobic Plate Counts after wash [7]: 2.7 Log cfu/g
- log10 reduction of indigenous microorganism on the Romaine leaf [7]: 0.7 log10
- Log reductions, attached on glass coupons ([4]; PA 60 ppm, LA 0 ppm): 0.2
- Log reductions, attached on plastic coupons ([4]; PA 60 ppm, LA 0 ppm): 1.2
- Log reductions, attached on stainless steel coupons ([4]; PA 60 ppm, LA 0 ppm): 1.5
- Log reductions, attached on glass coupons ([4]; PA 80 ppm, LA 0 ppm): 0.0
- Log reductions, attached on plastic coupons ([4]; PA 80 ppm, LA 0 ppm): 0.9
- Log reductions, attached on stainless steel coupons ([4]; PA 100 ppm, LA 0 ppm): 1.4
- Log reductions, attached on wood coupons ([4]; PA 100 ppm, LA 0 ppm): 1.0
- Log reductions, attached on wood coupons ([4]; PA 140 ppm, LA 0 ppm): 0.8
